Data as given in US20040127433A1, “Erythromycin derivative and medicament comprising the same” (priority 2000, published 2004).
Values after ≈ are worked out from the molar mass of the structure shown. Where two headings read alike, the source gives them in different places.

Legend:
[1] = test system: clinical isolates of a typical acid-fast mycobacteria; test: microbe, parasite or virus in culture; type: cell-based, Mycobacterium; settings: 7H11 agar, 37° C., 7 days; for MIC: 168 h
Procedure: (§1) In order to evaluate excellent efficacy of the compounds of the present invention, their antibacterial spectrums against a typical acid-fast mycobacteria were measured. Clarithromycin, rifampicin and 4″-O-acetylerythromycin A 9-(O-methyloxime) [a compound disclosed in the Japanese Patent Unexamined Publication (KOKAI) No.63-107921/1988] were used as reference compounds. Ac in the formula represents acetyl group. [drawing 1313]
(§2) Antibacterial Activity Against a Typical Acid-Fast Mycobacteria
(§3) Antibacterial activities (minimum inhibitory concentrations) against clinical isolates of a typical acid-fast mycobacteria were measured by the agar dilution method according to the standard method of the Japan Society of Chemotherapy. About 5 μl of bacterial suspension (adjusted to […]) were spotted on the 7H11 agar plates containing the test compounds. The minimum inhibitory concentrations were determined by the growth or no growth of the bacteria after incubation at 37° C. for 7 days. The abbreviation M in the table represents Mycobacterium. The compounds of the present invention had more excellent antibacterial activity than the reference compounds against a typical acid-fast mycobacteria including clarithromycin-resistant strains (M.avium 20092 and other bacteria).

[2] = test system: M.avium 20092; test: Antibacterial activity (minimum inhibitory concentration), agar dilution method, clarithromycin-resistant strain; type: cell-based, Mycobacterium avium; settings: M. avium 20092 (clarithromycin-resistant), 7H11 agar, 37° C., 7 days; for MIC: Mycobacterium avium, 168 h
Procedure: as §1, §2, §3

[3] = Mycobacterium avium, read-out: Minimum inhibitory concentration, M. avium 20034
[4] = Mycobacterium avium, read-out: Minimum inhibitory concentration, M. avium 20045
[5] = Mycobacterium avium, read-out: Minimum inhibitory concentration, M. avium 20096
[6] = Mycobacterium intracellulare, read-out: Minimum inhibitory concentration, M. intracellulare 20066
[7] = Mycobacterium intracellulare, read-out: Minimum inhibitory concentration, M. intracellulare 20067
[8] = Mycobacterium intracellulare, read-out: Minimum inhibitory concentration, M. intracellulare 20073
[9] = Mycobacterium intracellulare, read-out: Minimum inhibitory concentration, M. intracellulare 20075

melting point | Molecule | MIC [1, 3] | MIC [1, 4] | MIC [1, 5] | MIC [1, 6] | MIC [1, 7] | MIC [1, 8] | MIC [1, 9] | MIC [2] | Minimum inhibitory concentration ([1]; M. avium 20034) | Minimum inhibitory concentration ([1]; M. avium 20045) | Minimum inhibitory concentration ([1]; M. avium 20096) | Minimum inhibitory concentration ([1]; M. intracellulare 20066) | Minimum inhibitory concentration ([1]; M. intracellulare 20067) | Minimum inhibitory concentration ([1]; M. intracellulare 20073) | Minimum inhibitory concentration ([1]; M. intracellulare 20075) | Minimum inhibitory concentration [2]
 | CCCCCCCCON=C1[C@H](C)CC(C)(O)[C@H](O[C@@H]2O[C@H](C)C[C@H](N(C)C)[C@H]2OC(=O)NCc2ccccc2)C[C@H](O[C@H]2C[C@@](C)(OC)[C@@H](OC(C)=O)[C@H](C)O2)[C@@H](C)C(=O)O[C@H](CC)[C@@](C)(O)[C@H](O)[C@H]1C (some centres unmarked) [Example 94] | 0.39 µg/mL (≈ 0.381 µM) | 0.78 µg/mL (≈ 0.763 µM) | 0.39 µg/mL (≈ 0.381 µM) | 0.39 µg/mL (≈ 0.381 µM) | 0.39 µg/mL (≈ 0.381 µM) | 0.39 µg/mL (≈ 0.381 µM) | 0.39 µg/mL (≈ 0.381 µM) | 0.39 µg/mL (≈ 0.381 µM) |  |  |  |  |  |  |  | 
107 to 110 °C | CC[C@H]1OC(=O)[C@H](C)[C@@H](O[C@H]2C[C@@](C)(OC)[C@@H](O)[C@H](C)O2)C[C@@H](O[C@@H]2O[C@H](C)C[C@H](N(C)C)[C@H]2OC(=O)NCc2ccccc2)C(C)(O)C[C@@H](C)C(=NOCCCOc2ccccc2)[C@H](C)[C@@H](O)[C@]1(C)O (some centres unmarked) [Example 34] |  |  |  |  |  |  |  |  |  |  |  |  |  |  |  | 
 | CC[C@H]1OC(=O)[C@H](C)[C@@H](O[C@H]2C[C@@](C)(OC)[C@@H](O)[C@H](C)O2)[C@H](C)[C@@H](O[C@@H]2O[C@H](C)C[C@H](N(C)C)[C@H]2O)[C@](C)(OC)C[C@@H](C)C(=O)[C@H](C)[C@@H](O)[C@]1(C)O [compound 1, Clarithromycin] | 3.13 µg/mL (≈ 4.18 µM) | 1.56 µg/mL (≈ 2.09 µM) | > 50 µg/mL | 3.13 µg/mL (≈ 4.18 µM) | 1.56 µg/mL (≈ 2.09 µM) | 1.56 µg/mL (≈ 2.09 µM) | 3.13 µg/mL (≈ 4.18 µM) | > 50 µg/mL |  |  |  |  |  |  |  | 
 | CC[C@H]1OC(=O)[C@H](C)[C@@H](O[C@H]2C[C@@](C)(OC)[C@@H](OC(C)=O)[C@H](C)O2)[C@H](C)[C@@H](O[C@@H]2O[C@H](C)C[C@H](N(C)C)[C@H]2O)[C@](C)(O)C[C@@H](C)C(=NOC)[C@H](C)[C@@H](O)[C@]1(C)O [compound 3, 4″-O-acetylerythromycin A 9-(O-methyloxime)] |  |  |  |  |  |  |  |  | >50 µg/mL | 12.5 µg/mL (≈ 15.5 µM) | >50 µg/mL | 12.5 µg/mL (≈ 15.5 µM) | 6.25 µg/mL (≈ 7.76 µM) | 12.5 µg/mL (≈ 15.5 µM) | 12.5 µg/mL (≈ 15.5 µM) | >50 µg/mL
 | 4″-O-Acetyl-2′-O-benzylaminocarbonylerythromycin A 9-[O-(3-cyclo-hexylpropyl)oxime] [Example 40] |  |  |  |  |  |  |  |  | 0.39 µg/mL | 0.78 µg/mL | 0.78 µg/mL | 0.20 µg/mL | 0.78 µg/mL | 0.78 µg/mL | 0.78 µg/mL | 0.78 µg/mL
 | CO[C@H]1/C=C/O[C@@]2(C)Oc3c(C)c(O)c4c(O)c(c(/C=N/N5CCN(C)CC5)c(O)c4c3C2=O)NC(=O)/C(C)=C\C=C\[C@H](C)[C@H](O)[C@@H](C)[C@@H](O)[C@@H](C)[C@H](OC(C)=O)[C@@H]1C [compound 2, rifampicin] | 12.5 µg/mL (≈ 15.2 µM) | 3.13 µg/mL (≈ 3.8 µM) | 3.13 µg/mL (≈ 3.8 µM) | 3.13 µg/mL (≈ 3.8 µM) | 1.56 µg/mL (≈ 1.9 µM) | 3.13 µg/mL (≈ 3.8 µM) | 3.13 µg/mL (≈ 3.8 µM) | 50 µg/mL (≈ 60.8 µM) |  |  |  |  |  |  |  | 
